The values below are quoted from earlier work in US9304123B2, “Biomarkers used to detect and monitor neurological autoimmune diseases” (NUtech Ventures, priority 2012, dated 2016).

The structures appear in SMILES notation.

The data set relates to EAE. As to conditions: animal models.

Consider `CN(C)C(=N)N=C(N)N` [Metformin], for which the “effect on EAE progression” value is reported as “attenuate EAE progression”.
